# Test results taken from ChEMBL document CHEMBL1142677, “Synthesis, antitumor evaluation, and apoptosis-inducing activity of hydroxylated (E)-stilbenes” (2005).
# Assays:
# [1] = In vitro growth inhibitory concentration against human mammary carcinoma cell line MDA MB 468 using MTT assay; type: functional
# [2] = Percent of apoptosis in MDA MB 468 Cell line determined by Annexin-V-FITC/PI analysis at 10 uM; type: functional, Homo sapiens
# [3] = Percent of apoptosis in MDA MB 468 Cell line determined by Annexin-V-FITC/PI analysis at 250 nM; type: functional, Homo sapiens
# [4] = In vitro growth inhibitory concentration against human mammary carcinoma cell line MDA MB 468; type: functional
# HCT-116 = assay: In vitro growth inhibitory concentration against human colon cancer cell line HCT 116; type: functional
smiles,measurement,setting,value
COc1cc(/C=C/c2cccc(O)c2)cc(OC)c1,GI50,[1],960 nM
Oc1ccccc1/C=C/c1ccc(F)c(F)c1,GI50,[1],1100 nM
Oc1cccc(/C=C/c2ccc(F)c(F)c2)c1,GI50,[1],1600 nM
COc1ccccc1/C=C/c1cccc(O)c1,Apoptosis,[2],20%
Oc1cccc(/C=C/c2ccccc2F)c1,GI50,[1],1400 nM
CC[C@@]1(O)C(=O)OCc2c1cc1n(c2=O)Cc2cc3ccccc3nc2-1 [CAMPTOTHECIN],Apoptosis,[3],37%
Oc1ccc(/C=C/c2cc(O)cc(O)c2)cc1 [RESVERATROL],GI50,[4],> 40000 nM
same,GI50,HCT-116,> 40000 nM
same,Apoptosis,[2],4%
